Laboratory results: patent US20110178396A1, “Nicotinamide Derivatives” (CRC FOR BIOMEDICAL IMAGING DEVELOPMENT LTD., priority 2008, published 2011)

Test system: B16F0 melanoma tumour
Assay: Biodistribution in B16 melanoma bearing mice
Format: in vivo, C57BL/6J mice
Settings: C57BL/6J mice; for Organ distribution Intestine / Organ distribution Liver / Organ distribution Spleen / Organ distribution Stomach / Organ distribution Thyroid / Organ distribution Tumour: B16F0 tumour, mean ± S.D.; for Organ distribution Intestine / Organ distribution Liver / Organ distribution Spleen / Organ distribution Stomach / Organ distribution Thyroid / Organ distribution Tumour / Uptake Lung / uptake BLOOD / uptake BRAIN / uptake HEART / uptake KIDNEY / uptake LIVER / uptake TUMOUR: n = 5; for tumour standardized uptake value (SUVt) / Uptake Lung / uptake BLOOD / uptake BRAIN / uptake HEART / uptake KIDNEY / uptake LIVER / uptake TUMOUR: B16 tumour; for Uptake Lung / uptake BLOOD / uptake BRAIN / uptake HEART / uptake KIDNEY / uptake LIVER / uptake TUMOUR: mean ± SD
Experimental: Animal experiments were performed in compliance with the NHMRC Australian Code of Practice for the care and use of animals for scientific purposes. Female C57BL/6J black and BALB/c nude albino mice of 5 weeks age were obtained from the Animal Resources Centre, Western Australia. B16F0 murine melanoma cells were originally obtained from European Collection of Cell Cultures (UK) and A375 human amelanotic melanoma cells were originally obtained from American Type Culture Collection (USA). Before transplantation, B16F0 and A375 melanoma cells were maintained as a monolayer in RPMI culture medium supplemented with 10% foetal calf serum and antibiotics and passaged with trypsinisation. Early passages were frozen and stored in liquid nitrogen. Cells were passaged to P=10 and then discarded. Frozen aliquots were grown in a monolayer culture to between 80-95% confluence and for transplantation were trypsinised and washed with Ca^2+ and Mg^2+ free phosphate buffered saline (PBS). For inoculation, B16F0 melanoma cells were resuspended in Ca^2+ and Mg^2+ free PBS at 3 or 5×10^6 viable cells per ml and 0.1 ml was subcutaneously injected at the left flank of 6-7 weeks old C57BL/6J mice. Eleven days later, tumours could be palpated in >98% of inoculated animals. A375 human melanoma cells were resuspended at 1×10^7 viablecells per ml and 0.1 ml was injected subcutaneously at the left flank of 6 weeks old BALB/c nude mice and 25-26 days later tumours could be palpated with ˜60% of inoculated animals developing tumours.
Eleven days (B16F0 melanoma) and 25 days (A375 human melanoma) after tumour transplantation, the [^18F]nicotinamides (0.5-1.5 MBq, 100 μl) and [^123I]nicotinamide (0.37-0.74 MBq, 100 μl) derivatives were injected intravenously via the tail vein into mice (15-18 g). Time points of 1, 3, 6, 24, 48, 72 h after injection were chosen for determining the distribution of each compound in various organs and tissues for the iodine-123 labelled compounds and between 15 min and 6 hours (e.g. 15 min, 30 min, 1 h, 2 h, 4 h or 6 h) were chosen for the ^18F-labelled compounds. At defined times post injection, groups of mice (n=5) were weighed, sacrificed by CO2 administration followed by cervical dislocation and dissected. Selected organs were weighed and their radioactivity measured with a γ-counter. The remaining activity in the carcass was also determined in order to obtain the total activity in the mouse at defined time points. The fraction of injected activity (% ID) in the organ was calculated by comparison with suitable dilutions of the injected dose. Then, the radioactivity concentration in the organ (% ID/g) was found by dividing the % ID for each organ by the weight of the organ.

- Organ distribution Intestine (1 h): 15 ± 1 % ID/organ
- Organ distribution Liver (1 h): 2.0 ± 0.1 % ID/organ
- Organ distribution Spleen (1 h): 0.54 ± 0.09 % ID/organ
- Organ distribution Stomach (1 h): 6 ± 1 % ID/organ
- Organ distribution Thyroid (1 h): 1.3 ± 0.4 % ID/organ
- Organ distribution Tumour (1 h): 0.64 ± 0.20 % ID/organ
- Organ distribution Intestine (6 h): 9 ± 1 % ID/organ
- Organ distribution Liver (6 h): 0.95 ± 0.15 % ID/organ
- Organ distribution Spleen (6 h): 0.13 ± 0.02 % ID/organ
- Organ distribution Stomach (6 h): 6 ± 2 % ID/organ
- Organ distribution Thyroid (6 h): 4.0 ± 0.9 % ID/organ
- Organ distribution Tumour (6 h): 1.0 ± 0.2 % ID/organ
- Organ distribution Intestine (24 h): 0.40 ± 0.07 % ID/organ
- Organ distribution Liver (24 h): 0.14 ± 0.03 % ID/organ
- Organ distribution Spleen (24 h): 0.02 ± 0.03 % ID/organ
- Organ distribution Stomach (24 h): 0.17 ± 0.04 % ID/organ
- Organ distribution Thyroid (24 h): 6.0 ± 1.6 % ID/organ
- Organ distribution Tumour (24 h): 0.62 ± 0.22 % ID/organ
- tumour standardized uptake value (SUVt) (1 h): 1.8 ± 0.1
- Uptake Lung (1 h): 7.5 ± 0.2 % ID/g
- uptake BLOOD (1 h): 3.1 ± 0.1 % ID/g
- uptake BRAIN (1 h): 0.42 ± 0.02 % ID/g
- uptake HEART (1 h): 1.9 ± 0.1 % ID/g
- uptake KIDNEY (1 h): 3.5 ± 0.2 % ID/g
- uptake LIVER (1 h): 2.1 ± 0.2 % ID/g
- uptake TUMOUR (1 h): 5.6 ± 0.3 % ID/g
- tumour standardized uptake value (SUVt) (6 h): 2.2 ± 0.4
- Uptake Lung (6 h): 2.2 ± 0.2 % ID/g
- uptake BLOOD (6 h): 2.4 ± 0.3 % ID/g
- uptake BRAIN (6 h): 0.16 ± 0.03 % ID/g
- uptake HEART (6 h): 0.8 ± 0.1 % ID/g
- uptake KIDNEY (6 h): 1.7 ± 0.3 % ID/g
- uptake LIVER (6 h): 1.1 ± 0.1 % ID/g
- uptake TUMOUR (6 h): 5.0 ± 0.7 % ID/g
- tumour standardized uptake value (SUVt) (24 h): 5.1 ± 1.3
- Uptake Lung (24 h): 0.15 ± 0.3 % ID/g
- uptake BLOOD (24 h): 0.13 ± 0.03 % ID/g
- uptake BRAIN (24 h): 0.02 % ID/g
- uptake HEART (24 h): 0.09 ± 0.02 % ID/g
- uptake KIDNEY (24 h): 0.12 ± 0.03 % ID/g
- uptake LIVER (24 h): 0.15 ± 0.03 % ID/g
- uptake TUMOUR (24 h): 2.3 ± 0.4 % ID/g
Compound: CCCN(CCC)CCCCNC(=O)c1cncc(I)c1 [[^123I]17, N-(4-(Dipropylamino)butyl)-5-iodonicotinamide]
